Target: human APJ receptor (Homo sapiens (Human), UniProt P35414)
Experiment: [35S]GTPγS binding assay on membranes from CHO cells stably expressing human APJ receptor
Assay type: biochemical
Conditions: membranes of CHO cells stably expressing human APJ receptor, read-out: Activity hAPJ SPA EC50 IP
Protocol: The human APJ receptor was cloned by polymerase chain reaction and the gene encoding the receptor was subcloned in pFLAG-CMV™-3 expression vector (Sigma, Saint Louis, Mo. USA) in-house at Amgen. A GTPγS binding assay was performed on membranes prepared from CHO cells stably expressing human APJ receptor. The optimum experimental conditions for the concentrations of GDP, MgCl2, and NaCl in the assay buffer were initially determined. […] Incubation was at RT for 90 min and the microplate was read using a ViewLux™ ultra HTS Microplate Imager (PerkinElmer, Inc.). All the results presented are means of several independent experiments and analyzed by non-linear regression methods using the commercially available program Prism (GraphPad, San Diego, Calif.) providing the EC50 values detailed in Table 27.

human APJ receptor, sequence (P35414 whole entry): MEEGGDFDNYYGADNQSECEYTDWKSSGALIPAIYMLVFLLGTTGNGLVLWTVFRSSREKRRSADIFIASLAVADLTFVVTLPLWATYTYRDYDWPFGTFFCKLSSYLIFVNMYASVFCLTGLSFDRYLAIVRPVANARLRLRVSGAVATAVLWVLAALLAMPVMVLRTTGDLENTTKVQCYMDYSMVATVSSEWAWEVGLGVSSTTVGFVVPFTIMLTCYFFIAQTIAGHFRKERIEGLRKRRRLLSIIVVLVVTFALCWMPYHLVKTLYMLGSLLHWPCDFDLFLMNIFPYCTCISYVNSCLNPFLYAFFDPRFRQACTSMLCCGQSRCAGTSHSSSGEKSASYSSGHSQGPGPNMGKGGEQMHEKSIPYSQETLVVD

For COc1cccc(-c2nnc(NS(=O)(=O)[C@@H](C)[C@H](OC)c3cnc(C)cn3)n2C2(C3CC3)CC2)n1 [Example 109.0], the EC50 was 9.6 nM.
Work on COc1cccc(-c2nnc(NS(=O)(=O)[C@@H](C)[C@H](OC)c3ncc(Cl)cn3)n2C[C@H]2CCCO2)n1 (single isomer, unassigned) [Example 279.0, (1R,2S)-1-(5-chloropyrimidin-2-yl)-1-methoxy-N-(5-(6-methoxypyridin-2-yl)-4-(((R)-tetrahydrofuran-2-yl)methyl)-4H-1,2,4-triazol-3-yl)propane-2-sulfonamide or (1R,2S)-1-(5-chloropyrimidin-2-yl)-1-methoxy-N-(5-(6-methoxypyridin-2-yl)-4-(((S)-tetrahydrofuran-2-yl)methyl)-4H-1,2,4-triazol-3-yl)propane-2-sulfonamide] yielded an EC50 of 75 nM.
In the case of COc1cccc(-c2nnc(NS(=O)(=O)[C@@H](C)[C@H](OC)c3ncc(Cl)cn3)n2[C@H](C)c2cncc(F)c2)n1 (single isomer, unassigned) [Example 348.0, (1R,2S)-1-(5-chloropyrimidin-2-yl)-N-(4-((R)-1-(5-fluoropyridin-3-yl)ethyl)-5-(6-methoxypyridin-2-yl)-4H-1,2,4-triazol-3-yl)-1-methoxypropane-2-sulfonamide or (1R,2S)-1-(5-chloropyrimidin-2-yl)-N-(4-((S)-1-(5-fluoropyridin-3-yl)ethyl)-5-(6-methoxypyridin-2-yl)-4H-1,2,4-triazol-3-yl)-1-methoxypropane-2-sulfonamide], the EC50 is reported as 1.34 nM.
With COc1cccc(-c2nnc(NS(=O)(=O)[C@@H](C)[C@H](OC)c3ncc(Cl)cn3)n2CC[S@+](C)[O-])n1 (single isomer, unassigned) [Example 95.0] the EC50 was 26 nM.
Work on COc1cccc(-c2nnc(NS(=O)(=O)[C@@H](C)[C@H](OC)c3ncc(Cl)cn3)n2C2CC2(F)F)n1 (mixture of isomers) [Example 156.0, (1R,2S)-1-(5-Chloropyrimidin-2-yl)-N-(4-((S)-2,2-difluorocyclopropyl)-5-(6-methoxypyridin-2-yl)-4H-1,2,4-triazol-3-yl)-1-methoxypropane-2-sulfonamide and (1R,2S)-1-(5-chloropyrimidin-2-yl)-N-(4-((R)-2,2-difluorocyclopropyl)-5-(6-methoxypyridin-2-yl)-4H-1,2,4-triazol-3-yl)-1-methoxypropane-2-sulfonamide] yielded an EC50 of 37 nM.
In the case of COc1cccc(-c2nnc(NS(=O)(=O)[C@@H](C)[C@@H](OC(C)C)c3ncc(C)cn3)n2[C@@H](C)[C@H]2CCCO2)n1 (single isomer, unassigned) [Example 273.0], the EC50 is reported as 23 nM.
CO[C@H](c1cnc(C)cn1)[C@H](C)S(=O)(=O)Nc1nnc(-c2ccccn2)n1C1(C2CC2)CC1 [Example 110.0] showed an EC50 of 110 nM.
Work on CCOCCn1c(NS(=O)(=O)[C@@H](C)[C@H](OC)c2ncc(Cl)cn2)nnc1-c1cccc(OC)n1 [Example 22.0, (1R,2S)-1-(5-chloro-2-pyrimidinyl)-N-(4-(2-ethoxyethyl)-5-(6-methoxy-2-pyridinyl)-4H-1,2,4-triazol-3-yl)-1-methoxy-2-propanesulfonamide] yielded an EC50 of 3.2 nM.
Molecule COc1cccc(-c2nnc(NS(=O)(=O)[C@@H](C)[C@H](OC)c3ncc(Cl)cn3)n2C(C2CC2)C2CC2)n1 [Example 25.0, (1R,2S)-1-(5-chloro-2-pyrimidinyl)-N-(4-(dicyclopropylmethyl)-5-(6-methoxy-2-pyridinyl)-4H-1,2,4-triazol-3-yl)-1-methoxy-2-propanesulfonamide] has an EC50 of 0.08 nM.
COc1cccc(-c2nnc(NS(=O)(=O)[C@@H](C)[C@H](OC)c3ncc(Cl)cn3)n2CCc2ccccn2)n1 [Example 283.0, (1R,2S)-1-(5-chloropyrimidin-2-yl)-1-methoxy-N-(5-(6-methoxypyridin-2-yl)-4-(2-(pyridin-2-yl)ethyl)-4H-1,2,4-triazol-3-yl)propane-2-sulfonamide] showed an EC50 of 69 nM.
CC[C@@H](C)n1c(NS(=O)(=O)[C@@H](C)[C@H](OC)c2ncc(Cl)cn2)nnc1-c1cccc(OC)n1 (single isomer, unassigned) [Example 54.0] gave an EC50 of 0.5 nM.
Work on COc1cccc(-c2nnc(NS(=O)(=O)[C@@H](C)[C@@H](OC(C)C)c3ncc(C)cn3)n2[C@@H](C)c2ncn(C)n2)n1 (single isomer, unassigned) [Example 233.0, (1S,2S)-N-(5-(6-methoxy-2-pyridinyl)-4-((1S)-1-(1-methyl-1H-1,2,4-triazol-3-yl)ethyl)-4H-1,2,4-triazol-3-yl)-1-(5-methyl-2-pyrimidinyl)-1-(2-propanyloxy)-2-propanesulfonamide or (1S,2S)-N-(5-(6-methoxy-2-pyridinyl)-4-((1R)-1-(1-methyl-1H-1,2,4-triazol-3-yl)ethyl)-4H-1,2,4-triazol-3-yl)-1-(5-methyl-2-pyrimidinyl)-1-(2-propanyloxy)-2-propanesulfonamide] yielded an EC50 of 10 nM.
In the case of CO[C@H](c1ncc(Cl)cn1)[C@H](C)S(=O)(=O)Nc1nnc(-c2ccccn2)n1C1(C)CC1 [Example 97.0], the EC50 is reported as 11 nM.
In the case of COCCn1c(NS(=O)(=O)[C@@H](C)[C@H](C)c2ncc(OC)cn2)nnc1-c1cccc(OC)n1 [Example 20.0, (2S,3R)-N-(4-(2-methoxyethyl)-5-(6-methoxy-2-pyridinyl)-4H-1,2,4-triazol-3-yl)-3-(5-methoxy-2-pyrimidinyl)-2-butanesulfonamide], the EC50 is reported as 110 nM.
With COc1cccc(-c2nnc(NS(=O)(=O)[C@@H](C)[C@H](OC)c3ncc(Cl)cn3)n2[C@H]2C[C@@H](OC)C2)n1 [Example 180.0, (1R,2S)-1-(5-chloro-2-pyrimidinyl)-1-methoxy-N-(4-(cis-3-methoxycyclobutyl)-5-(6-methoxy-2-pyridinyl)-4H-1,2,4-triazol-3-yl)-2-propanesulfonamide] the EC50 was 74 nM.
Work on CCC(CC)n1c(NS(=O)(=O)[C@@H](C)[C@H](OC)c2ncc(Cl)cn2)nnc1-c1cccc(OC)n1 [Example 10.0, (1R,2S)-1-(5-chloro-2-pyrimidinyl)-1-methoxy-N-(5-(6-methoxy-2-pyridinyl)-4-(3-pentanyl)-4H-1,2,4-triazol-3-yl)-2-propanesulfonamide] yielded an EC50 of 0.32 nM.
With COc1cccc(-c2nnc(NS(=O)(=O)[C@@H](C)[C@H](OC)c3ncc(Cl)cn3)n2C2CCC2)n1 [Example 182.0, (1R,2S)-1-(5-chloro-2-pyrimidinyl)-N-(4-cyclobutyl-5-(6-methoxy-2-pyridinyl)-4H-1,2,4-triazol-3-yl)-1-methoxy-2-propanesulfonamide] the EC50 was 25 nM.
COCC1(n2c(NS(=O)(=O)[C@@H](C)[C@@H](OC(C)C)c3ncc(C)cn3)nnc2-c2ccccn2)CC1 [Example 65.0] was tested, and the EC50 was 24 nM.
In the case of COc1cccc(-c2nnc(NS(=O)(=O)[C@@H](C)[C@@H](OC(C)C)c3ncc(C)cn3)n2[C@@H](C)c2ncn(C)n2)n1 (single isomer, unassigned) [Example 234.0, (1S,2S)-N-(5-(6-methoxy-2-pyridinyl)-4-((1R)-1-(1-methyl-1H-1,2,4-triazol-3-yl)ethyl)-4H-1,2,4-triazol-3-yl)-1-(5-methyl-2-pyrimidinyl)-1-(2-propanyloxy)-2-propanesulfonamide or (1S,2S)-N-(5-(6-methoxy-2-pyridinyl)-4-((1S)-1-(1-methyl-1H-1,2,4-triazol-3-yl)ethyl)-4H-1,2,4-triazol-3-yl)-1-(5-methyl-2-pyrimidinyl)-1-(2-propanyloxy)-2-propanesulfonamide], the EC50 is reported as 84 nM.
Molecule COc1cccc(-c2nnc(NS(=O)(=O)[C@@H](C)[C@H](OC)c3ncc(Cl)cn3)n2C[C@@H]2CCC[C@H](C)O2)n1 (single isomer, unassigned) [Example 308.0] has an EC50 of 1.9 nM.
With CO[C@H](c1ncc(Cl)cn1)[C@H](C)S(=O)(=O)Nc1nnc(-c2cccc(C)n2)n1C1(C)CCC1 [Example 59.0] the EC50 was 28 nM.
Work on COc1cccc(-c2nnc(NS(=O)(=O)[C@@H](C)[C@@H](OC(C)C)c3ncc(C)cn3)n2[C@@H](C)c2nc(C)no2)n1 (single isomer, unassigned) [Example 240.0, (1S,2S)-N-(5-(6-methoxy-2-pyridinyl)-4-((1S)-1-(3-methyl-1,2,4-oxadiazol-5-yl)ethyl)-4H-1,2,4-triazol-3-yl)-1-(5-methyl-2-pyrimidinyl)-1-(2-propanyloxy)-2-propanesulfonamide or (1S,2S)-N-(5-(6-methoxy-2-pyridinyl)-4-((1R)-1-(3-methyl-1,2,4-oxadiazol-5-yl)ethyl)-4H-1,2,4-triazol-3-yl)-1-(5-methyl-2-pyrimidinyl)-1-(2-propanyloxy)-2-propanesulfonamide] yielded an EC50 of 2 nM.
In the case of COc1cccc(-c2nnc(NS(=O)(=O)[C@@H](C)[C@@H](OC(C)C)c3ncc(C)cn3)n2[C@H](C)[C@@H]2CCCCO2)n1 (single isomer, unassigned) [Example 323.0], the EC50 is reported as 0.66 nM.
For CCc1cc(Cn2c(NS(=O)(=O)[C@@H](C)[C@H](OC)c3ncc(Cl)cn3)nnc2-c2cccc(OC)n2)on1 [Example 292.0, (1R,2S)-1-(5-Chloropyrimidin-2-yl)-N-(4-((3-ethylisoxazol-5-yl)methyl)-5-(6-methoxypyridin-2-yl)-4H-1,2,4-triazol-3-yl)-1-methoxypropane-2-sulfonamide], the EC50 was 2.4 nM.
COc1cccc(-c2nnc(NS(=O)(=O)[C@@H](C)[C@H](OC)c3ncc(Cl)cn3)n2C[C@H]2CCCCO2)n1 (racemic) [Example 288.0, (1R,2S)-1-(5-chloropyrimidin-2-yl)-1-methoxy-N-(5-(6-methoxypyridin-2-yl)-4-(((R)-tetrahydro-2H-pyran-2-yl)methyl)-4H-1,2,4-triazol-3-yl)propane-2-sulfonamide or (1R,2S)-1-(5-chloropyrimidin-2-yl)-1-methoxy-N-(5-(6-methoxypyridin-2-yl)-4-(((S)-tetrahydro-2H-pyran-2-yl)methyl)-4H-1,2,4-triazol-3-yl)propane-2-sulfonamide] gave an EC50 of 3.3 nM.
